The nature of the data set: In vivo PK studies in dog (oral administration): plasma levels of nalmefene. As to conditions: oral administration of nalmefene itself. The procedure: C.2. In vivo PK Studies in Dog (Oral Administration): Plasma Levels of Nalmefene
Doses at 10 mg/kg or 20 mg/kg body weight of a compound of formula (I) or of nalmefene itself in a solution of 20% HP-β-CD (hydroxypropyl-β-cyclodextrines) were used and orally administered to dogs.
Blood samples were taken over a period of 192 hours after oral administration. Blood samples were processed to obtain plasma. Plasma samples were analysed individually for nalmefene by means of a qualified LC-MS/MS-method.

For the compound `C=C1CC[C@@]2(O)[C@H]3Cc4ccc(O)c5c4[C@@]2(CCN3CC2CC2)[C@H]1O5` [nalmefene, 17-cyclopropylmethyl-4,5α-epoxy-6-methylenemorphinan-3,14-diol], the “time for which plasma levels of nalmefene can be measured after oral administration” value is “a few hours”.

The values above are taken from patent US8440686B2, “Nalmefene prodrugs” (Janssen Pharmaceutica NV, priority 2008, dated 2013).
